Assay results taken from patent US11697850B2, “Polymorphism in the Apo(a) gene predict responsiveness to acetylsalicylic acid treatment” (Celera Corporation, priority 2007, dated 2023).

Experiment: Women's Health Study (WHS): randomized trial of low dose aspirin vs placebo, incident cardiovascular events stratified by rs3798220 genotype or Lp(a) level
Format: in vivo, human
Conditions: for relative risk reduction of major vascular events with aspirin: aspirin 100 mg orally on alternate days vs placebo, 10-year follow-up
Source text: The genotype of this polymorphism was therefore determined among 26,274 initially healthy women from the Women's Health Study (WHS) who had been randomly allocated to low dose aspirin or placebo and then followed over a 10-year period for incident cardiovascular events (31). This setting afforded the opportunity for prospective assessment not only of rs3798220 association with Lp(a) levels and vascular risk, but also of an interaction between aspirin and genetic effects on risk. Although most of the study participants were Caucasian, there were sufficient numbers of non-Caucasian participants to address population-specific influences on associations between rs3798220 and Lp(a) levels, as have been found in previous comparisons of other apolipoprotein(a) variants among populations with different biogeographic ancestry (32-36).
Study Populations: The primary study population derived from the Women's Health Study (WHS), a randomized trial of aspirin (100 mg orally on alternate days) and placebo in the primary prevention of cardiovascular disease conducted among initially healthy women aged at least 45 at enrollment who were followed over a 10 year period (1, 2). At enrollment, participants provided baseline clinical and demographic information. 28,345 WHS participants provided blood for plasma and genetic analysis. Among these samples, baseline Lp(a) levels were measured with a turbidimetric assay that is not affected by the number of Kr IV type-2 repeats on the Hitachi 917 analyzer (Roche Diagnostics, Indianapolis, Ind.) (3). Baseline measurement of other lipid fractions, inflammation biomarkers, and other plasma components has been described previously (4). Total incident cardiovascular events adjudicated during the follow-up period included those typically associated with plaque rupture and vessel occlusion such as myocardial infarction (MI), ischemic stroke, and cardiovascular death, as well as those typically associated with progression of underlying atherosclerotic disease defined as revascularization by percutaneous transluminal coronary angioplasty (PTCA) or coronary artery bypass graft (CABG). Major incident cardiovascular events were defined as myocardial infarction, ischemic stroke, or cardiovascular death. In addition, the association between rs3798220 and plasma Lp(a) levels was evaluated in an independent group of 1058 Caucasian men who had participated in the Physicians Health Study (PHS) (5). Among these PHS participants, Lp(a) levels were determined with a standard clinical ELISA-based method (6).
Genotyping: Genotypes for rs3798220 in the WHS participants were determined by an oligonucleotide ligation procedure that combined PCR amplification of target sequences from 3 ng of genomic DNA with subsequent allele-specific oligonucleotide ligation (7). The ligation products of the two alleles were then separated by hybridization to product specific oligonucleotides, each coupled to spectrally distinct Luminex®100™ xMAP microspheres (Luminex, Austin, Tex.). The captured products were fluorescently labeled with streptavidin R-phycoerythrin (Prozyme, San Leandro, Calif.), sorted on the basis of microsphere spectrum, and detected by a Luminex®100™ instrument (8). Genotypes at rs3798220 in the PHS were determined with a fluorescence-based, allele specific, real-time DNA amplification method as described (ABI, Foster City) (9). For the WHS and PHS populations respectively, the fractions of samples with successful genotype determination were 96.3% and 97.8%. Of the 27,289 women with DNA samples for genotyping, full ascertainment for rs3798220 genotype, Lp(a) levels, age, and occurrence of incident cardiovascular events were available for 25,436. Of these, 24,320 were Caucasian, 468 were African-American, 282 were Asian American, 262 where Hispanic, 62 were Native American, and 42 had unknown ancestry.
Statistical methods: Deviations from Hardy-Weinberg equilibrium were evaluated using a log-likelihood ratio test. […]

**Q.** What does the source list for CC(=O)Oc1ccccc1C(=O)O [aspirin, acetylsalicylic acid]?
**A.** relative risk reduction of major vascular events with aspirin (Caucasian WHS women, non-carriers of rs3798220 minor allele (TT)): 9%; relative risk reduction of coronary revascularization with aspirin (Caucasian WHS women, rs3798220 heterozygotes, aspirin 100 mg on alternate days vs placebo): 36%; relative risk reduction of major vascular events with aspirin (Caucasian WHS women, rs3798220 heterozygotes): 59%; effect of aspirin on relative risk of vascular events (Caucasian non-carriers of rs3798220 minor allele with Lp(a) above the 90th percentile (65.1 mg/dL)): reduced the relative risk of vascular events; effect of aspirin on relative risk of vascular events (Caucasian non-carriers of rs3798220 minor allele with Lp(a) below the 90th percentile): minimal effect; relative risk reduction for the revascularization endpoint with aspirin (Caucasians with Lp(a) levels above the 90th percentile (65.1 mg/dL), aspirin vs placebo): 39%
